System: adjuvant-induced arthritis in rats
Experiment: Established adjuvant-induced arthritis in rats (paw volume of uninjected left hind paw)
Type: in vivo, Charles River Lewis male rats
Conditions: Rattus norvegicus, 168 h; oral gavage daily, 7 days; established adjuvant-induced arthritis, Lewis male rats; ED50% by inspection of dose-response regression lines; read-out: ED50% Decrease From Control Paw Volume
Description: A procedure for detecting and comparing the antiinflammatory activity of compounds in this series and standard drugs for which there is a good correlation with human efficacy is the adjuvant-induced arthritis test in rats.
The test procedure employed for determining antiinflammatory activity is described below.
ESTABLISHED ADJUVANT-INDUCED ARTHRITIS IN RATS
Charles River Lewis male rats (130-150 grams) are injected subcutaneously in plantar area of the right hind paw with 0.1 ml of adjuvant (Difco heat-killed, lyophilized Mycobacterium butyricum suspended in mineral oil 5 mg/ml). 20 Non-arthritic controls are injected with mineral oil. The animals are held for 2 weeks to allow development of arthritis. Paw volumes (uninjected, left hind paw) are measured and the adjuvant injected rats are culled and distributed to treatment groups of 10 of equal disease severity. Non-arthritic controls are distributed to 2 groups of 10. The rats are given oral doses of compound or PVA-Acacia (Polyvinyl Alcohol 1%, Gum Acacia, U.S.P. 5%, Methylparaben 0.5%) (10 ml/kg) by gavage on that day and on the 6 following days. One day after the last dose the paw volumes (uninjected, left hind paw) are measured using a Ugo Basile Volume Differential Meter Model 7101. [formula]
Dose-response regression lines of the % decrease are plotted on semi-log paper by visual fit and the ED50% decrease from control paw volume is determined by inspection.

Row | Structure (SMILES) | ED50
1 | OC(c1cc(-c2ccccc2)c(-c2ccccc2)s1)(C(F)(F)F)C(F)(F)F [Example 6] | 21 mg/kg
2 | CC(O)(c1cc(-c2ccc(F)cc2)c(-c2ccc(F)cc2)s1)C(F)(F)F (stereo not drawn) [Example 7, 4,5-Bis(4-fluorophenyl)-α-methyl-α-trifluoromethyl-2-thiophenemethanol] | 5.5 mg/kg
3 | CCCCC1C(=O)N(c2ccccc2)N(c2ccccc2)C1=O [Phenylbutazone, reference compound] | 10 mg/kg
4 | OC(c1cc(-c2ccc(F)cc2)c(-c2ccc(F)cc2)s1)(C(F)(F)F)C(F)(F)Cl (stereo not drawn) [Example 10, 4,5-Bis(4-fluorophenyl)-α-chlorodifluoromethyl-α-trifluoromethyl-2-thiophenemethanol] | 6.8 mg/kg
5 | OC(c1cc(-c2ccc(F)cc2)c(-c2ccc(Cl)cc2)s1)(C(F)(F)F)C(F)(F)F [Example 5, 5-(4-Chlorophenyl)-4-(4-fluorophenyl)-α,α-bis(trifluoromethyl)-2-thiophenemethanol] | 9 mg/kg
6 | OC(c1cc(-c2ccc(F)cc2)c(-c2ccc(F)cc2)s1)(C(F)(F)F)C(F)(F)F [Example 1, 4,5-Bis(4-fluorophenyl)-α,α-bis(trifluoromethyl)-2-thiophenemethanol] | 10 mg/kg
7 | Cc1c(C(O)(C(F)(F)Cl)C(F)(F)Cl)sc(-c2ccc(F)cc2)c1-c1ccc(F)cc1 [Example 27, 3-Methyl-4,5-bis(4-fluorophenyl)-α,α-bis(chlorodifluoromethyl)-2-thiophenemethanol] | 12 mg/kg
8 | OC(c1cc(-c2ccc(F)cc2)c(-c2ccc(F)cc2)s1)(C(F)F)C(F)(F)F (stereo not drawn) [Example 9] | 18 mg/kg
9 | OC(c1cc(-c2ccc(F)cc2)c(-c2ccc(F)cc2)s1)(C(F)(F)Cl)C(F)(F)Cl [Example 8, 4,5-Bis(4-fluorophenyl)-α,α-bis(chlorodifluoromethyl)-2-thiophenemethanol] | 4.5 mg/kg
10 | COc1ccc(-c2cc(C(O)(C(F)(F)F)C(F)(F)F)sc2-c2ccc(SC)cc2)cc1 [Example 4, 4-(4-Methoxyphenyl)-5-(4-methylthiophenyl)-α,α-bis(trifluoromethyl)-2-thiophenemethanol] | 10 mg/kg

Same assay, conditions: Rattus norvegicus, po, 168 h, read-out: ED50% Decrease From Control Paw Volume

Row | Structure (SMILES) | ED50
11 | COc1ccc2c(c1)c(CC(=O)O)c(C)n2C(=O)c1ccc(Cl)cc1 [Indomethacin, reference compound] | 0.25 mg/kg
12 | CC(=O)Oc1ccccc1C(=O)O [Aspirin, reference compound] | 270 mg/kg

Same assay, conditions: daily oral dose 27 mg/kg, 7 days; established adjuvant-induced arthritis, rats; p < 0.1 (Ex. 2), p < 0.001 (Ex. 3) vs control, Student's t test

Row | Structure (SMILES) | Percent Decrease From Control Paw Volume
13 | OC(c1cc(-c2ccc(F)cc2)c(-c2ccc(F)cc2)s1)(C(F)(F)Cl)C(F)(Cl)Cl (stereo not drawn) [Example 2] | 20%
14 | COc1ccc(-c2cc(C(O)(C(F)(F)F)C(F)(F)F)sc2-c2ccc(OC)cc2)cc1 [Example 3] | 47%

Same assay, conditions: daily oral dose 51 mg/kg, 7 days; established adjuvant-induced arthritis, rats; p < 0.001 vs control, Student's t test

Row | Structure (SMILES) | Percent Decrease From Control Paw Volume
15 | CC(=O)OC(c1cc(-c2ccc(F)cc2)c(-c2ccc(F)cc2)s1)(C(F)(F)Cl)C(F)(F)Cl [Example 29, 4,5-Bis(4-fluorophenyl)-α,α-bis(chlorodifluoromethyl)-2-thiophenemethanol, acetate] | 31%
